From EP1100481B1, “PHARMACEUTICAL FORMULATIONS COMPRISING BECLOMETHASONE DIPROPIONATE FOR THE TREATMENT OF INFLAMMATORY BOWEL DISEASE” (CHIESI FARMACEUTICI S.p.A., priority 1998, dated 2000)

Test: Pharmacokinetic-scintigraphic study of systemic absorption
Type: in vivo
Details: healthy volunteers
Method: The disintegration behavior of the tablets was also evaluated in vivo, at the intestinal site, in a study carried out on 8 healthy volunteers. A scintigraphic technique was employed as it is suitable for evaluating the position and integrity of the tablet within the gastrointestinal tract (Steed K.P. et al. Int J Pharmaceutics 1994; 112:199-206). […] These findings confirmed that the modified-relase tablets of the invention meet the requirements considered necessary for a formulation designed for the topical treatment of inflammatory bowel disease.

systemic absorption of unmetabolised BDP and/or of its metabolites: absence of systemic absorption
Compound: CCC(=O)OCC(=O)[C@@]1(OC(=O)CC)[C@@H](C)C[C@H]2[C@@H]3CCC4=CC(=O)C=C[C@]4(C)[C@@]3(Cl)[C@@H](O)C[C@@]21C [BDP, beclomethasone dipropionate]
